The values that follow come from patent US20250353891A1 (MEDIMMUNE LIMITED, priority 2022, published 2025).

Starred links: 1 amine or outer side, 2 acyl side, 3 side chain; linkers in the order of their positions; H or OH if unused. Non-standard residues stand in square brackets, D forms with d. Residues, ends and D or L forms follow the SMILES beside them. Groups on a side chain read outwards from the residue. *: point of attachment. C20 diacid = O=C(O)CCCCCCCCCCCCCCCCCCC(=O)*; C18 diacid = O=C(O)CCCCCCCCCCCCCCCCC(=O)*; γGlu = O=C(O)[C@H](CCC(=O)[*:2])N[*:1]; αMeF = C[C@](N)(Cc1ccccc1)C(=O)O; PEG4 = NCCOCCOCCOCCOCCC(=O)O; PEG2 = NCCOCCOCCC(=O)O; AEEA = NCCOCCOCC(=O)O; Aib = CC(C)(N)C(=O)O

The target in assay [1] is human GLP-1 receptor (hGLP-1R) (Homo sapiens, UniProt P43220). The assay can be described thus: cAMP production (HTRF) in CHO cells expressing hGLP-1R. It is filed as cell-based. Set-up: expressed in transfected cells. Particulars: for EC50: Table 7, peptides modified at position 20, cAMP in CHO hGLP-1R cells, geometric mean, read-out: hGLP-1R EC50; for % Relative Potency Ratio: Table 7, % GLP-1R activity relative to GLP-1 / % GlucR activity relative to glucagon. The procedure, abridged:
(§1)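 Read-out: HTRF cAMP (anti-cAMP cryptate donor, cAMP-d2 acceptor in conjugate/lysis buffer), converted to % Delta F and fitted by 4-parameter logistic for EC50. Cell densities were 1×10^5 cells/mL (hGLP-1R) or 2×10^5 cells/mL (hGCGR). Stimulation lasted 30 min at room temperature.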
On the technique in general: Changes in cAMP serve as a functional read-out for many G protein-coupled receptors.

In assay [2] the target is human glucagon receptor (hGCGR) (Homo sapiens, UniProt P47871). The experiment in a line: cAMP production (HTRF) in CHO cells expressing hGCGR. Particulars: Table 7, peptides modified at position 20; cAMP in CHO hGCGR cells; geometric mean; read-out: hGluc-R EC50. It is filed as cell-based. Set-up: expressed in transfected cells. The procedure, abridged: as §1
Chain of human glucagon receptor (hGCGR) (P47871 26-477): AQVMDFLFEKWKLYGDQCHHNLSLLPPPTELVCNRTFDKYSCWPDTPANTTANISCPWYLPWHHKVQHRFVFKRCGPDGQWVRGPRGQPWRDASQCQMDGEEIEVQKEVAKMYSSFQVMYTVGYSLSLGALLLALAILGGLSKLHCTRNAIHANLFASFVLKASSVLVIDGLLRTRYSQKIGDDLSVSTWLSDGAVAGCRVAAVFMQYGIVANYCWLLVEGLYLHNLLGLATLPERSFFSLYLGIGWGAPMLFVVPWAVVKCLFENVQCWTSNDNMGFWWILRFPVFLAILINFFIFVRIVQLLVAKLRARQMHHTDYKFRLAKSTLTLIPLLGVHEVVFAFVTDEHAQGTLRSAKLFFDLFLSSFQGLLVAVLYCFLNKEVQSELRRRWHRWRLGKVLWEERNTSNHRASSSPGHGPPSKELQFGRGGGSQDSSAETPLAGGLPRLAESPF

Chain of human GLP-1 receptor (hGLP-1R) (P43220 24-463): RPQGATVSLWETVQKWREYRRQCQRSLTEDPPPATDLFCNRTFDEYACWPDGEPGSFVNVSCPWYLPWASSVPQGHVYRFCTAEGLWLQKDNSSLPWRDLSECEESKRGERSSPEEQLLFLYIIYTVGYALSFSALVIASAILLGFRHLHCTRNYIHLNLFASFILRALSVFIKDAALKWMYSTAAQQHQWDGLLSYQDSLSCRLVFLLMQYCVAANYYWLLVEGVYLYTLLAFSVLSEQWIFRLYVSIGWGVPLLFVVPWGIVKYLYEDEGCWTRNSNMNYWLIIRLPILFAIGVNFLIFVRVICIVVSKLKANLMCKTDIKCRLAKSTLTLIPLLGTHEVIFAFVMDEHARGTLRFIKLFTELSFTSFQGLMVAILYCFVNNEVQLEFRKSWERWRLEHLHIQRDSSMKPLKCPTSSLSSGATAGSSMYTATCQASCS

Turning to `CC[C@H](C)[C@H](NC(=O)C(C)(C)NC(=O)[C@H](CCC(N)=O)NC(=O)[C@@H](NC(=O)[C@](C)(Cc1ccccc1)NC(=O)[C@H](CC(=O)O)NC(=O)[C@H](CCCCNC(=O)COCCOCCNC(=O)CC[C@H](NC(=O)CCCCCCCCCCCCCCCCC(=O)O)C(=O)O)NC(=O)[C@H](C)NC(=O)[C@H](C)NC(=O)[C@H](CCCNC(=N)N)NC(=O)[C@H](CO)NC(=O)[C@H](CC(=O)O)NC(=O)[C@H](CC(C)C)NC(=O)[C@](C)(Cc1ccccc1)NC(=O)[C@H](CCCCN)NC(=O)[C@H](CO)NC(=O)[C@@H](NC(=O)[C@H](CC(=O)O)NC(=O)[C@H](CO)NC(=O)[C@@H](NC(=O)[C@](C)(Cc1ccccc1)NC(=O)[C@H](CO)NC(=O)CNC(=O)[C@H](Cc1c[nH]cn1)NC(=O)C(C)(C)NC(=O)[C@@H](N)Cc1c[nH]cn1)[C@@H](C)O)C(C)C)C(C)C)C(=O)N[C@@H](C)C(=O)N[C@@H](CC(N)=O)C(=O)N[C@H](C(N)=O)[C@@H](C)O` [Peptide 262] (H-H[Aib]HGS[αMeF]TSDVSK[αMeF]LDSRAAK([AEEA-γGlu-C18 diacid])D[αMeF]VQ[Aib]IANT-NH2), in assay [1], the EC50 – broadly, the concentration giving half of the maximal effect – was 13 pM and the “% Relative Potency Ratio” value worked out at 1.8. In assay [2], the concentration giving a half-maximal response (EC50) stood at 11.7 pM.
`CC[C@H](C)[C@H](NC(=O)C(C)(C)NC(=O)[C@H](CCC(N)=O)NC(=O)[C@@H](NC(=O)[C@](C)(Cc1ccccc1)NC(=O)[C@H](CC(=O)O)NC(=O)[C@H](CCCCNC(=O)CCOCCOCCOCCOCCNC(=O)CC[C@H](NC(=O)CC[C@H](NC(=O)CCCCCCCCCCCCCCCCC(=O)O)C(=O)O)C(=O)O)NC(=O)[C@H](C)NC(=O)[C@H](C)NC(=O)[C@H](CCCNC(=N)N)NC(=O)[C@H](CO)NC(=O)[C@H](CC(=O)O)NC(=O)[C@H](CC(C)C)NC(=O)[C@](C)(Cc1ccccc1)NC(=O)[C@H](CCCCN)NC(=O)[C@H](CO)NC(=O)[C@@H](NC(=O)[C@H](CC(=O)O)NC(=O)[C@H](CO)NC(=O)[C@@H](NC(=O)[C@](C)(Cc1ccccc1)NC(=O)[C@H](CO)NC(=O)CNC(=O)[C@H](Cc1c[nH]cn1)NC(=O)C(C)(C)NC(=O)[C@@H](N)Cc1c[nH]cn1)[C@@H](C)O)C(C)C)C(C)C)C(=O)N[C@@H](C)C(=O)N[C@@H](CC(N)=O)C(=O)N[C@H](C(N)=O)[C@@H](C)O` [Peptide 263] (H-H[Aib]HGS[αMeF]TSDVSK[αMeF]LDSRAAK([PEG4-γGlu-γGlu-C18 diacid])D[αMeF]VQ[Aib]IANT-NH2): the half-maximal effective concentration (EC50) in assay [1] turned out to be 25.4 pM; in assay [2], 64.6 pM.
Regarding `CC[C@H](C)[C@H](NC(=O)C(C)(C)NC(=O)[C@H](CCC(N)=O)NC(=O)[C@@H](NC(=O)[C@](C)(Cc1ccccc1)NC(=O)[C@H](CC(=O)O)NC(=O)[C@H](CCCCNC(=O)CCOCCOCCNC(=O)CCOCCOCCNC(=O)CC[C@H](NC(=O)CC[C@H](NC(=O)CCCCCCCCCCCCCCCCCCC(=O)O)C(=O)O)C(=O)O)NC(=O)[C@H](C)NC(=O)[C@H](C)NC(=O)[C@H](CCCNC(=N)N)NC(=O)[C@H](CO)NC(=O)[C@H](CC(=O)O)NC(=O)[C@H](CC(C)C)NC(=O)[C@](C)(Cc1ccccc1)NC(=O)[C@H](CCCCN)NC(=O)[C@H](CO)NC(=O)[C@@H](NC(=O)[C@H](CC(=O)O)NC(=O)[C@H](CO)NC(=O)[C@@H](NC(=O)[C@](C)(Cc1ccccc1)NC(=O)[C@H](CO)NC(=O)CNC(=O)[C@H](Cc1c[nH]cn1)NC(=O)C(C)(C)NC(=O)[C@@H](N)Cc1c[nH]cn1)[C@@H](C)O)C(C)C)C(C)C)C(=O)N[C@@H](C)C(=O)N[C@@H](CC(N)=O)C(=O)N[C@H](C(N)=O)[C@@H](C)O` [Peptide 264] (H-H[Aib]HGS[αMeF]TSDVSK[αMeF]LDSRAAK([PEG2-PEG2-γGlu-γGlu-C20 diacid])D[αMeF]VQ[Aib]IANT-NH2), the 50% effective concentration (EC50) worked out at 69.5 pM in assay [1] and 297 pM in assay [2]. Moreover, in assay [1], the “% Relative Potency Ratio” value is on record as 8.5.
For the compound `CC[C@H](C)[C@H](NC(=O)C(C)(C)NC(=O)[C@H](CCC(N)=O)NC(=O)[C@@H](NC(=O)[C@](C)(Cc1ccccc1)NC(=O)[C@H](CC(=O)O)NC(=O)[C@H](CCCCNC(=O)COCCOCCNC(=O)CC[C@H](NC(=O)COCCOCCNC(=O)CCCCCCCCCCCCCCCCCCC(=O)O)C(=O)O)NC(=O)[C@H](C)NC(=O)[C@H](C)NC(=O)[C@H](CCCNC(=N)N)NC(=O)[C@H](CO)NC(=O)[C@H](CC(=O)O)NC(=O)[C@H](CC(C)C)NC(=O)[C@](C)(Cc1ccccc1)NC(=O)[C@H](CCCCN)NC(=O)[C@H](CO)NC(=O)[C@@H](NC(=O)[C@H](CC(=O)O)NC(=O)[C@H](CO)NC(=O)[C@@H](NC(=O)[C@](C)(Cc1ccccc1)NC(=O)[C@H](CO)NC(=O)CNC(=O)[C@H](Cc1c[nH]cn1)NC(=O)C(C)(C)NC(=O)[C@@H](N)Cc1c[nH]cn1)[C@@H](C)O)C(C)C)C(C)C)C(=O)N[C@@H](C)C(=O)N[C@@H](CC(N)=O)C(=O)N[C@H](C(N)=O)[C@@H](C)O` [Peptide 265] (H-H[Aib]HGS[αMeF]TSDVSK[αMeF]LDSRAAK([AEEA-γGlu-AEEA-C20 diacid])D[αMeF]VQ[Aib]IANT-NH2), in assay [1], the concentration for a half-maximal effect (EC50) is 71.2 pM and the “% Relative Potency Ratio” value is recorded as 3.6. Besides, in assay [2], the EC50 is 131 pM.
For `CC[C@H](C)[C@H](NC(=O)C(C)(C)NC(=O)[C@H](CCC(N)=O)NC(=O)[C@@H](NC(=O)[C@](C)(Cc1ccccc1)NC(=O)[C@H](CC(=O)O)NC(=O)[C@H](CCCCNC(=O)COCCOCCNC(=O)CC[C@H](NC(=O)COCCOCCNC(=O)CC[C@H](NC(=O)CCCCCCCCCCCCCCCCCCC(=O)O)C(=O)O)C(=O)O)NC(=O)[C@H](C)NC(=O)[C@H](C)NC(=O)[C@H](CCCNC(=N)N)NC(=O)[C@H](CO)NC(=O)[C@H](CC(=O)O)NC(=O)[C@H](CC(C)C)NC(=O)[C@](C)(Cc1ccccc1)NC(=O)[C@H](CCCCN)NC(=O)[C@H](CO)NC(=O)[C@@H](NC(=O)[C@H](CC(=O)O)NC(=O)[C@H](CO)NC(=O)[C@@H](NC(=O)[C@](C)(Cc1ccccc1)NC(=O)[C@H](CO)NC(=O)CNC(=O)[C@H](Cc1c[nH]cn1)NC(=O)C(C)(C)NC(=O)[C@@H](N)Cc1c[nH]cn1)[C@@H](C)O)C(C)C)C(C)C)C(=O)N[C@@H](C)C(=O)N[C@@H](CC(N)=O)C(=O)N[C@H](C(N)=O)[C@@H](C)O` [Peptide 266] (H-H[Aib]HGS[αMeF]TSDVSK[αMeF]LDSRAAK([AEEA-γGlu-AEEA-γGlu-C20 diacid])D[αMeF]VQ[Aib]IANT-NH2), in assay [1], the EC50 was 66.5 pM and the “% Relative Potency Ratio” value is recorded as 8.7. Moreover, the concentration giving a half-maximal response (EC50) in assay [2] is 293 pM.
In the same order, the values of `CC[C@H](C)[C@H](NC(=O)C(C)(C)NC(=O)[C@H](CCC(N)=O)NC(=O)[C@@H](NC(=O)[C@](C)(Cc1ccccc1)NC(=O)[C@H](CC(=O)O)NC(=O)[C@H](CCCCNC(=O)CCOCCOCCOCCOCCNC(=O)CC[C@H](NC(=O)CCCCCCCCCCCCCCCCCCC(=O)O)C(=O)O)NC(=O)[C@H](C)NC(=O)[C@H](C)NC(=O)[C@H](CCCNC(=N)N)NC(=O)[C@H](CO)NC(=O)[C@H](CC(=O)O)NC(=O)[C@H](CC(C)C)NC(=O)[C@](C)(Cc1ccccc1)NC(=O)[C@H](CCCCN)NC(=O)[C@H](CO)NC(=O)[C@@H](NC(=O)[C@H](CC(=O)O)NC(=O)[C@H](CO)NC(=O)[C@@H](NC(=O)[C@](C)(Cc1ccccc1)NC(=O)[C@H](CO)NC(=O)CNC(=O)[C@H](Cc1c[nH]cn1)NC(=O)C(C)(C)NC(=O)[C@@H](N)Cc1c[nH]cn1)[C@@H](C)O)C(C)C)C(C)C)C(=O)N[C@@H](C)C(=O)N[C@@H](CC(N)=O)C(=O)N[C@H](C(N)=O)[C@@H](C)O` [Peptide 267] (H-H[Aib]HGS[αMeF]TSDVSK[αMeF]LDSRAAK([PEG4-γGlu-C20 diacid])D[αMeF]VQ[Aib]IANT-NH2) are 65.6 pM, 3.9 and 128 pM.
For `CC[C@H](C)[C@H](NC(=O)C(C)(C)NC(=O)[C@H](CCC(N)=O)NC(=O)[C@@H](NC(=O)[C@](C)(Cc1ccccc1)NC(=O)[C@H](CC(=O)O)NC(=O)[C@H](CCCCNC(=O)COCCOCCNC(=O)CC[C@H](NC(=O)CCCCCCCCCCCCCCCCCCC(=O)O)C(=O)O)NC(=O)[C@H](C)NC(=O)[C@H](C)NC(=O)[C@H](CCCNC(=N)N)NC(=O)[C@H](CO)NC(=O)[C@H](CC(=O)O)NC(=O)[C@H](CC(C)C)NC(=O)[C@](C)(Cc1ccccc1)NC(=O)[C@H](CCCCN)NC(=O)[C@H](CO)NC(=O)[C@@H](NC(=O)[C@H](CC(=O)O)NC(=O)[C@H](CO)NC(=O)[C@@H](NC(=O)[C@](C)(Cc1ccccc1)NC(=O)[C@H](CO)NC(=O)CNC(=O)[C@H](Cc1c[nH]cn1)NC(=O)C(C)(C)NC(=O)[C@@H](N)Cc1c[nH]cn1)[C@@H](C)O)C(C)C)C(C)C)C(=O)N[C@@H](C)C(=O)N[C@@H](CC(N)=O)C(=O)N[C@H](C(N)=O)[C@@H](C)O` [Peptide 268] (H-H[Aib]HGS[αMeF]TSDVSK[αMeF]LDSRAAK([AEEA-γGlu-C20 diacid])D[αMeF]VQ[Aib]IANT-NH2; N-terminus assumed), in that order: 39.5 pM, 1.5 and 29.3 pM.
